How the values were obtained:
[1] = test system: adventitious root of cultivate ginseng, camphor ginseng, wild ginseng; experiment: Effect of jasmonic acid and methyl jasmonic acid treatment on the saponin content of adventitious root in balloon shape bioreactor; assay type: cell-based
Excerpt: (§1) The measurement of saponin content was followed by the standard method for the analysis of ginseng constituent of The Korean Ginseng Research Institute.
While culturing the adventitious root of cultivate ginseng, camphor ginseng, wild ginseng in a balloon shape bioreactor, the saponin content in the adventitious root was examined at the initial time, 10 days before harvest, and after harvest with the treatment of various concentrations of jasmonic acid and methyl jasmonic acid.
The experiment was conducted under the conditions of pH 6.0 and the MS media added with 3% sugar and 2.0 mg/L IBA.
The saponin content in the adventitious root was measured for the root treated by various concentrations of jamonic acid or methyl jamonic acid of 0, 1, 2, 5, 10 mg/L 10 days before harvest and the root washed by tap water obtained from the MS media not containing sugar or the treated root by tap water which includes jasmonic acid or methyl jasmonic acid, for one week.

[2] = test system: root tissue of cultivated ginseng, camphor ginseng, and wild ginseng; experiment: Effect of growth regulator pretreatment before culturing on saponin content and saponin ratio; assay type: cell-based; settings: pretreatment 1-10 hours before culturing at 1-100 mg/L
Description: as §1
Among growth regulators, BA(benzyl adenine) 2iP, zeatin, […], TDZ, kinetin which are included in cytokinin groups was treated 1-10 hours before culturing the root tissue of cultivated ginseng, camphor ginseng, and wild ginseng at the concentration of 1-100 mg/L. Immediate after the pretreatment the saponin and the diol:triol content were compared and analyzed.

[3] = test system: adventitious root of wild ginseng; experiment: Effect of added growth regulator on adventitious root propagation (wild ginseng); assay type: cell-based; parameters: unit not given here; settings: MS media, 3% sugar, pH6.0
Description: (§2) After adding 3% of sugar to the MS media and adjusting pH6.0, basal medium were made by adding 1 mg/L, 2 mg/L, 3 mg/L, 5 mg/L of each of the IBA, NAA and BSAA as auxin. These basal mediums were divided into a 1 L flask and a 5 L bioreactor.

[4] = test system: adventitious root of cultivated ginseng; experiment: Effect of added growth regulator on adventitious root propagation (cultivated ginseng); assay type: cell-based, Panax ginseng C.A. Meyer; parameters: Cultivated ginseng (Increment rate of biomass): unit not given here; settings: for Cultivated ginseng (Increment rate of biomass): MS media, 3% sugar, pH6.0
Description: as §2

Question: Which “Ginsenoside content Rb Group” value ([1]; jasmonic acid 1 mg/L) does the source give for CC/C=C\C[C@H]1C(=O)CC[C@@H]1CC(=O)O [Jasmonic acid, jasmonic acid] here?
Answer: 13.29 mg. 1 g drymass

Question: And the “Ginsenoside content Rg Group” value ([1]; jasmonic acid 1 mg/L)?
Answer: 2.83 mg. 1 g drymass

Question: What about the “Ginsenoside content Total content” value ([1]; jasmonic acid 1 mg/L) of the same compound?
Answer: 16.09 mg. 1 g drymass

Question: And the Rb/Rg ([1]; jasmonic acid 1 mg/L)?
Answer: 4.68

Question: What about the “Ginsenoside content Rb Group” value ([1]; jasmonic acid 2 mg/L) of the same compound?
Answer: 24.19 mg. 1 g drymass

Question: What about the “Ginsenoside content Rg Group” value ([1]; jasmonic acid 2 mg/L) of the same compound?
Answer: 4.46 mg. 1 g drymass

Question: What about the “Ginsenoside content Total content” value ([1]; jasmonic acid 2 mg/L) of the same compound?
Answer: 28.69 mg. 1 g drymass

Question: What about the Rb/Rg ([1]; jasmonic acid 2 mg/L) of the same compound?
Answer: 5.45

Question: What about the “Ginsenoside content Rb Group” value ([1]; jasmonic acid 5 mg/L) of the same compound?
Answer: 34.69 mg. 1 g drymass

Question: What about the “Ginsenoside content Rg Group” value ([1]; jasmonic acid 5 mg/L) of the same compound?
Answer: 4.15 mg. 1 g drymass

Question: And the “Ginsenoside content Total content” value ([1]; jasmonic acid 5 mg/L)?
Answer: 38.82 mg. 1 g drymass

Question: What about the Rb/Rg ([1]; jasmonic acid 5 mg/L) of the same compound?
Answer: 8.43

Question: And the “Ginsenoside content Rb Group” value ([1]; jasmonic acid 10 mg/L)?
Answer: 54.29 mg. 1 g drymass

Question: And the “Ginsenoside content Rg Group” value ([1]; jasmonic acid 10 mg/L)?
Answer: 5.53 mg. 1 g drymass

Question: And the “Ginsenoside content Total content” value ([1]; jasmonic acid 10 mg/L)?
Answer: 59.87 mg. 1 g drymass

Question: What about the Rb/Rg ([1]; jasmonic acid 10 mg/L) of the same compound?
Answer: 9.83

Question: O=C(Nc1ccccc1)Nc1cnns1 [TDZ] was tested. Which “remarks: effect on the saponin components” value (“remarks: effect” below) [2] did it give?
Answer: zeatin show similar

Question: For jasmonic acid, which saponin content [2] is on record?
Answer: 6.50

Question: And the triol/diol [2]?
Answer: 2.40

Question: Which “remarks: effect” value [2] does the source give for C/C(=C\CNc1ncnc2[nH]cnc12)CO [zeatin] here?
Answer: zeatin show similar

Question: What does the source list for O=C(O)CCCc1c[nH]c2ccccc12 [IBA]?
Answer: Wild ginseng (Increment rate of biomass) ([3]; growth regulator 1 mg/L): 4.3; Wild ginseng (Increment rate of biomass) ([3]; growth regulator 2 mg/L): 6.8; Wild ginseng (Increment rate of biomass) ([3]; growth regulator 3 mg/L): 5.7; Wild ginseng (Increment rate of biomass) ([3]; growth regulator 5 mg/L): 4.2; Cultivated ginseng (Increment rate of biomass) ([4]; growth regulator 1 mg/L): 4.5; Cultivated ginseng (Increment rate of biomass) ([4]; growth regulator 2 mg/L): 6.7; Cultivated ginseng (Increment rate of biomass) ([4]; growth regulator 3 mg/L): 6.5; Cultivated ginseng (Increment rate of biomass) ([4]; growth regulator 5 mg/L): 3.8

Question: Which results are given for O=C(O)Cc1c[se]c2ccccc12 [BSAA, benzo [b] selenienyl acetic acid]?
Answer: Wild ginseng (Increment rate of biomass) ([3]; growth regulator 1 mg/L): 5.0; Wild ginseng (Increment rate of biomass) ([3]; growth regulator 2 mg/L): 12.5; Wild ginseng (Increment rate of biomass) ([3]; growth regulator 3 mg/L): 11.7; Wild ginseng (Increment rate of biomass) ([3]; growth regulator 5 mg/L): 3.9; increment of the biomass (in words) ([4]; concentration of 2-3 mg/L, text summary of Table 1 (cultivated and wild ginseng)): remarkable increment; Cultivated ginseng (Increment rate of biomass) ([4]; growth regulator 1 mg/L): 5.3; Cultivated ginseng (Increment rate of biomass) ([4]; growth regulator 2 mg/L): 13.2; Cultivated ginseng (Increment rate of biomass) ([4]; growth regulator 3 mg/L): 11.4; Cultivated ginseng (Increment rate of biomass) ([4]; growth regulator 5 mg/L): 4.8

Question: How did the saponin content [2] turn out when CC/C=C\CC1C(=O)CCC1CC(=O)OC (stereo not drawn) [methyl jasmonic acid] was run?
Answer: 6.50

Question: And the triol/diol [2]?
Answer: 2.40

Question: Which results are given for O=C(O)Cc1cccc2ccccc12 [NAA, naphthalemeacetic acid]?
Answer: Wild ginseng (Increment rate of biomass) ([3]; growth regulator 1 mg/L): 3.4; Wild ginseng (Increment rate of biomass) ([3]; growth regulator 2 mg/L): 6.8; Wild ginseng (Increment rate of biomass) ([3]; growth regulator 3 mg/L): 6.2; Wild ginseng (Increment rate of biomass) ([3]; growth regulator 5 mg/L): 3.8; Cultivated ginseng (Increment rate of biomass) ([4]; growth regulator 1 mg/L): 3.2; Cultivated ginseng (Increment rate of biomass) ([4]; growth regulator 2 mg/L): 7.2; Cultivated ginseng (Increment rate of biomass) ([4]; growth regulator 3 mg/L): 6.7; Cultivated ginseng (Increment rate of biomass) ([4]; growth regulator 5 mg/L): 4.2

Question: CC(C)=CCNc1ncnc2nc[nH]c12 [2iP] was tested. Which “remarks: effect” value [2] did it give?
Answer: zeatin show similar

Question: With c1coc(CNc2ncnc3[nH]cnc23)c1 [kinetin] as the compound, how does the “remarks: effect” value [2] read?
Answer: zeatin show similar

Question: How did the saponin content [2] turn out when c1ccc(CNc2ncnc3nc[nH]c23)cc1 [BA, benzyl adenine] was run?
Answer: 1.23

Question: What about the triol/diol [2] of the same compound?
Answer: 1.63
